According to article PMC9969401, “Discovery of 2-(3-Benzamidopropanamido)thiazole-5-carboxylate Inhibitors of the Kinesin HSET (KIFC1) and the Development of Cellular Target Engagement Probes” (Journal of Medicinal Chemistry, 2023):

What was measured:
[1] = target: T1, recombinant full-length HSET (Homo sapiens, UniProt Q9BW19); experiment: ADP-Glo HSET assay (500 μM ATP); assay type: biochemical; conditions: high ATP concentration of 500 μM; single determination or mean of two
T1 construct: 5 nM full-length human N-terminal His-tag HSET; His-tag (N)
T1 sequence (Q9BW19 1-673): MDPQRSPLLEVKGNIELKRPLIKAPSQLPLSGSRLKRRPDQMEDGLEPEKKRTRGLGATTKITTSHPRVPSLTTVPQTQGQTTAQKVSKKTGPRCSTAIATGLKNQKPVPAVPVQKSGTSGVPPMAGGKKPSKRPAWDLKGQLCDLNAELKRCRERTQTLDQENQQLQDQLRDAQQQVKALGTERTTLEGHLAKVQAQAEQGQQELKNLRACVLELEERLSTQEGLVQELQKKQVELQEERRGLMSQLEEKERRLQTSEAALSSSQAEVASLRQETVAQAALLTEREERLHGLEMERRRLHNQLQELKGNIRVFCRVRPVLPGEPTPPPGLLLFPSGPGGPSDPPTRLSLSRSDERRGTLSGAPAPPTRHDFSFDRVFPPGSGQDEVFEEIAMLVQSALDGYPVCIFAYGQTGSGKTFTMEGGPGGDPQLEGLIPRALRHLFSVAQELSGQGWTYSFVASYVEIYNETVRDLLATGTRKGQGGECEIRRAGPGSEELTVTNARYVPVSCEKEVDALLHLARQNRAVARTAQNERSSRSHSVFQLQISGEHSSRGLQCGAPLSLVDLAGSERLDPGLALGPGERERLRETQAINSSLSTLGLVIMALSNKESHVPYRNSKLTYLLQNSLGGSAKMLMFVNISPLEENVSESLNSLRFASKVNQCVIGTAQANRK
Description: The HSET or Eg5 ATPase activity was measured using the ADP-Glo Kinase Assay kit (Promega, V9102). The assays were run using final concentrations of 5 nM full-length human N-terminal His-tag HSET or 4 nM GST-tagged Eg5 motor domain protein (Cytoskeleton, EG01) and an assay buffer containing 20 mM HEPES pH 6.8, 10 mM MgCl2, 0.25 mM EGTA, 0.4 mM Triton X-100, and 1 mM DTT. Preformed microtubules (Universal Biologicals Cambridge, bovine MT001-XL, or porcine MT002-XL), which were reconstituted in 15 mM PIPES pH 7, 1 mM MgCl2, and 20 μM paclitaxel, were present at a final assay concentration of 70 μg/mL. A reaction volume of 5 μL was used in Proxiplate 384 plus white assay plates (PerkinElmer, 6008280). To measure compound inhibition, 100 nL of compound dissolved in DMSO or DMSO alone was preincubated with the HSET and microtubules for 10 min before 3 μM Ultra-Pure ATP was added to start the ATPase reaction for the 3 μM ATP HSET assay. For the 500 μM ATP HSET assay, the addition of 500 μM Ultra-Pure ATP was used. For the Eg5 ATPase assay, 4.8 μM Ultra-Pure ATP was used. All reactions were incubated at 25 °C for 80 min and then stopped by the addition of 5 μL of the ADP-Glo reagent. 10 μL of Kinase Detection Reagent was then added after a further 45 min of incubation. The luminescence was read after 45 min on a PheraStar FSX plate reader (BMG Labtech). The data processing was performed using Dotmatics Studies software package. Percentage inhibition was determined based on normalization to high controls (0% inhibition, all reagents with 100 nL of DMSO alone) and low controls (100% inhibition […], without HSET). The IC50 values for each compound were determined using a four-parameter logistic curve fit of % inhibition versus concentration.

[2] = system: non-centrosome amplified DLD1 (4N) cells; experiment: Multipolar spindle assay (4N cell line); assay type: cell-based, human; conditions: for % Multipolarity above baseline @ 15 mM (4N cells): supplementary CSV; for % multipolarity above baseline @ 15 μM (4N cells): 4N DLD1 cells (Table 4)
Procedure, shortened: (§1)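 4NCA cells came from 2N DLD1 treated 24 h with 2 μΜ DCB then released 24 h; 4N DLD1 used directly. After 3.5 h arrest with 8 μM pro-TAME, compounds were added with 8 μM MG-132; fixed cells stained for aurora A, pHH3 and DAPI, imaged, and percentage multipolar (>2 poles) mitoses scored.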

[3] = system: centrosome-amplified (4NCA) DLD1 cells; experiment: Multipolar spindle assay (4NCA cell line); assay type: cell-based, human
Procedure, shortened: as §1

[4] = Kinetic aqueous solubility (KSol), HPLC-UV; assay type: physicochemical; conditions: PBS buffer pH 7.4, 100 μM solution with 1% DMSO, HPLC with UV detection
[5] = 15 μM, 4NCA DLD1 cells (Table 4)
[6] = 15 µM, 4NCA cells, supplementary CSV

Row | SMILES | IC50 [1] | % Multipolarity above baseline @ 15 mM (4N cells) ([2]; 15 μM) | effect on multipolar mitoses (4N), in words ([2]; 15 μM, non-centrosome amplified DLD1 (4N) cell line) | % multipolarity above baseline @ 15 μM (4N cells) [2] | % multipolarity above baseline @ 15 μM (4NCA cells) [3, 5] | % multipolarity above baseline @ 15 μM (4NCA cells) [3, 6] | increase in mitotic spindle multipolarity (4NCA) ([3]; 15 μM, centrosome-amplified (4NCA) DLD1 cell line) | KSol data [4]
1 | CCCOC(=O)c1sc(NC(=O)CCNC(=O)c2cccc(-c3noc(C)n3)c2)nc1C [Compound 32, Propyl 4-Methyl-2-(3-(3-(5-methyl-1,2,4-oxadiazol-3-yl)benzamido)propanamido)thiazole-5-carboxylate] | 51 nM | 2% | minimal effect | 2% | 21% | 21% | 21% | 
2 | CCCOC(=O)c1sc(NC(=O)C[C@H](CCCNC)NC(=O)c2cccc(-c3noc(C)n3)c2)nc1C [Compound 35, Propyl (S)-4-Methyl-2-(3-(3-(5-methyl-1,2,4-oxadiazol-3-yl)benzamido)-6-(methylamino)hexanamido)thiazole-5-carboxylate] | 66 nM | 1% |  | 1% | 11% | 11% |  | >90 µM
3 | CCCOC(=O)c1sc(NC(=O)C[C@H](CCCN(C)C)NC(=O)c2cccc(-c3noc(C)n3)c2)nc1C [Compound 36, Propyl (S)-2-(6-(Dimethylamino)-3-(3-(5-methyl-1,2,4-oxadiazol-3-yl)benzamido)hexanamido)-4-methylthiazole-5-carboxylate] | 90 nM | 1% |  | 1% | 15% | 15% |  | >90 µM
4 | CCCOC(=O)c1sc(NC(=O)C[C@H](CCCN(C)C(=O)O[C@@H]2CC/C=C/CCC2)NC(=O)c2cccc(-c3noc(C)n3)c2)nc1C [Compound 38, Propyl 2-((S)-6-(((((S,E)-Cyclooct-4-en-1-yl)oxy)carbonyl)(methyl)amino)-3-(3-(5-methyl-1,2,4-oxadiazol-3-yl)benzamido)hexanamido)-4-methylthiazole-5-carboxylate] |  |  |  |  |  |  |  | 1.8 µM
